ChEMBL document CHEMBL4808240, “Design, synthesis and analysis of novel sphingosine kinase-1 inhibitors to improve oral bioavailability” (Bioorg Med Chem Lett, 2021)

Biological target: Sphingosine kinase 1 (Homo sapiens, UniProt Q9NYA1)
Experiment: Inhibition of recombinant full length GST-tagged human SPHK1 expressed in baculovirus expression system incubated for 1 hr in presence of ATP by Alexa Fluor 647 tracer based Adapta assay

Sequence of Sphingosine kinase 1 (Q9NYA1 whole entry): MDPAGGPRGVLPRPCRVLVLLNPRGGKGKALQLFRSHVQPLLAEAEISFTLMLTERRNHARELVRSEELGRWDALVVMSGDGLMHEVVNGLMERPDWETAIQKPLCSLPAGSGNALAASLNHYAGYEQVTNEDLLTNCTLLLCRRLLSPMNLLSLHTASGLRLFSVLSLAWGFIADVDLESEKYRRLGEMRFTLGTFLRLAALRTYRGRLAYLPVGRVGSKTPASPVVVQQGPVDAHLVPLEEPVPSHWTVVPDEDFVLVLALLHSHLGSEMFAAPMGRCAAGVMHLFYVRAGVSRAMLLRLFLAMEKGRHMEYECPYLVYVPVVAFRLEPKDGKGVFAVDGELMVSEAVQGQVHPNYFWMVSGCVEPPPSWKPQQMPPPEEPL

Row | Compound | IC50 [µM]
1 | COc1ccc(/C=N/NC(=O)c2cc(-c3ccc4ccccc4c3)[nH]n2)cc1 | > 10
2 | O=C(N/N=C/C1CCCCC1)c1cc(-c2ccc3ccccc3c2)[nH]n1 | > 10
3 | COc1cccc(/C=N/NC(=O)c2cc(-c3ccc4ccccc4c3)[nH]n2)c1 | > 10
4 | O=C(N/N=C/c1ccccc1)c1cc(-c2ccc3ccccc3c2)[nH]n1 | > 10
5 | COc1ccc(/C=N/NC(=O)c2cc(-c3ccc4ccccc4c3)[nH]n2)cc1OC | 6.55
6 | O=C(N/N=C/c1ccc2c(c1)OCCO2)c1cc(-c2ccc3ccccc3c2)[nH]n1 | > 10
7 | COc1ccc2ccccc2c1/C=N/NC(=O)c1cc(-c2ccc3ccccc3c2)[nH]n1 | > 10
8 | O=C(N/N=C/c1ccc(O)cc1)c1cc(-c2ccc3ccccc3c2)n[nH]1 | > 10
9 | O=C(N/N=C/c1cccc2ccccc12)c1cc(-c2ccc3ccccc3c2)[nH]n1 | > 10
10 | COc1ccccc1/C=N/NC(=O)c1cc(-c2ccc3ccccc3c2)[nH]n1 | > 10
11 | O=C(N/N=C/c1cccnc1)c1cc(-c2ccc3ccccc3c2)[nH]n1 | > 10
12 | O=C(N/N=C/c1ccc(Cl)cc1)c1cc(-c2ccc3ccccc3c2)[nH]n1 | > 10
13 | O=C(N/N=C/c1c(O)ccc2ccccc12)c1cc(-c2ccc3ccccc3c2)n[nH]1 | > 10
14 | O=C(N/N=C/c1cccc(O)c1)c1cc(-c2ccc3ccccc3c2)n[nH]1 | > 10
15 | O=C(N/N=C/c1ccccc1O)c1cc(-c2ccc3ccccc3c2)n[nH]1 | > 10
16 | O=C(N/N=C/c1cccc([N+](=O)[O-])c1)c1cc(-c2ccc3ccccc3c2)[nH]n1 | > 10
